Reference: article PMC9705736, “Synthesis of activity evaluation of flavonoid derivatives as ɑ-glucosidase inhibitors” (Frontiers in Chemistry, 2022)

Experiments:
[1] = biological target: T1, α-Glucosidase from Saccharomyces cerevisiae (EC 3.2.1.20) (Saccharomyces cerevisiae, UniProt P53341); experiment: biochemical
T1 construct: purchased Sigma-Aldrich

[2] = biological target: T1, α-Glucosidase from Saccharomyces cerevisiae (EC 3.2.1.20); experiment: Enzyme inhibitory mechanism and kinetic type assay (Lineweaver-Burk plots); assay type: biochemical; details: compound 0–25 μM
Description: To study the inhibitory mechanisms of all derivatives on α-glucosidase, enzyme inhibitory mechnism was detected using compound 4 with the strongest inhibitory. Figure 3A illustrated the plots of enzyme activity vs. enzyme concentration.
The kinetic type was also studied using Lineweaver-Burk plots.
α-Glucosidase from Saccharomyces cerevisiae (EC 3.2.1.20) and p-Nitrophenyl-α-D-[…] (p-NPG) were purchased from Sigma-Aldrich. All additional reagents and solvents were readily obtained from a commercial source. NMR spectra were obtained on 500 MHz equipment in CDCl3. High-resolution mass spectral (HRMS) data was recorded on Apex II using the ESI technique.
The α-glucosidase inhibitory activity of compounds (1 ∼ 6) was detected as described in previous reports ([Adisakwattana et al., 2009]; [Adisakwattana et al., 2013]; [Zhang et al., 2022]). 10 μl α-glucosidase solution, 10 μl compound were added into 80 μl phosphate buffer, and the mixture was incubated for 10 min. Then, 100 μl p-NPG solution was added into the mixture, followed by the absorbance change detection at 405 nm. The inhibition rate (%) = […] × 100%, where OD1 and OD0 were the absorbance of tested compound and blank, respectively. The IC50 value was calculated from the plot of inhibition rate vs. compound concentration. Acarbose was used as a positive sample. All samples were repeated four times. The enzyme inhibitory mechnism and kinetic type were also determined according to previous reported reports ([Adisakwattana et al., 2004]; [Song et al., 2016]).

T1 sequence (P53341 whole entry): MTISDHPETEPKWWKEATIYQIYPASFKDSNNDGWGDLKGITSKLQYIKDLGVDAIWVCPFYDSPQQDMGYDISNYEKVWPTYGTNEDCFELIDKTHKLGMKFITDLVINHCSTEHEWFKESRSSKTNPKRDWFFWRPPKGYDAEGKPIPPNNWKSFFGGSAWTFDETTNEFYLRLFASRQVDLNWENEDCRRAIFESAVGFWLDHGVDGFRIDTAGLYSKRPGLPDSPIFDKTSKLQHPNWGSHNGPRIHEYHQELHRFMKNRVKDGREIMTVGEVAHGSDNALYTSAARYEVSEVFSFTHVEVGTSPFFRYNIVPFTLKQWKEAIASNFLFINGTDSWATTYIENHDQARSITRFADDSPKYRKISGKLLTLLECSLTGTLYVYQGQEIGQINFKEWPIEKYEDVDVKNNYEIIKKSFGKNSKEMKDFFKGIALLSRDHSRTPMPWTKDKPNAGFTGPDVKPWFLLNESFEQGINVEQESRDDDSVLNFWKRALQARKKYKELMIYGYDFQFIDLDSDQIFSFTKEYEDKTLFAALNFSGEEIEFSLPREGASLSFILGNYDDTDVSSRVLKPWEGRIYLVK

Structure (SMILES) | melting point [°C] | IC50 [1] [µM] | Inhibition type (Lineweaver-Burk plots of enzyme activity vs. substrate concentration) [2] | Inhibitory mechanism (plots of enzyme activity vs. enzyme concentration) [2] | Inhibition type (Lineweaver-Burk plots of enzyme activity vs. substrate concentration) ([2]; listed as derivative four) | Inhibitory mechanism (plots of enzyme activity vs. enzyme concentration) ([2]; listed as derivative four)
O=C(CCc1ccc(C(F)(F)F)cc1)Oc1ccc(-c2cc(=O)c3ccccc3o2)cc1 [Compound 6] | 250 to 251 | 27.54 ± 0.02 |  |  |  | 
Cc1ccc(CCC(=O)Oc2ccc(-c3cc(=O)c4ccccc4o3)cc2)cc1 [Compound 2] | 135 to 136 | 21.55 ± 0.13 |  |  |  | 
O=C(CCc1ccc(Cl)cc1)Oc1ccc(-c2cc(=O)c3ccccc3o2)cc1 [Compound 3] | 112 to 114 | 31.09 ± 0.1 |  |  |  | 
O=C(CCc1ccccc1)Oc1ccc(-c2cc(=O)c3ccccc3o2)cc1 [Compound 1] | 133 to 134 | 42.06 ± 0.08 |  |  |  | 
O=C(CCc1ccc(Br)cc1)Oc1ccc(-c2cc(=O)c3ccccc3o2)cc1 [Compound 4] | 127 to 129 | 15.7 ± 0.21 | mix-type inhibition | reversible inhibitor | mixed-type inhibitor | reversible
O=C(CCc1ccc(F)cc1)Oc1ccc(-c2cc(=O)c3ccccc3o2)cc1 [Compound 5] | 103 to 104 | 19.66 ± 0.04 |  |  |  | 
